# Values of other authors as cited in patent publication US10206949B2, “Composition that relieves heartburn, GERD and hangovers” (priority 2015, dated 2019).
# [1] = patients with acute renal or cardiac failure
smiles,measurement,setting,value
"CNC(=C[N+](=O)[O-])NCCSCc1ccc(CN(C)C)o1 [ranitidine, N-(2-[(5-[(dimethylamino)methyl]furan-2-yl)methylthio]ethyl)-N′-methyl-2-nitroethene-1,1-diamine]",false positives for methamphetamine on drug tests,in vivo,known to give false positives
same,fungal sepsis,patients on ranitidine,observed in some patients
same,mucosal perfusion,[1],decrease mucosal perfusion
same,risk of death,[1],increases their risk of death
